Measured values reported in ChEMBL document CHEMBL4804283, “Stk19 inhibitors for treatment of cancer” (2020).
Activity calls are given as the source filed them. The rule behind the calls is not given here.

Columns and labels:
SK-MEL-2 [1] = experiment: Antitumor activity against human SK-MEL-2 cells xenografted in nude mouse assessed as induction of apoptosis at 50 mg/kg, administered for 21 days; type: functional, organism-based
hTERT [2] = experiment: Inhibition of colony formation in hTERT/p53DD/CDK4 (R24C) immortal melanocytes expressing STK19 D89N mutant at 3 uM relative to control; type: functional; details: Homo sapiens
A-375 = experiment: Growth inhibition of human A375 cells expressing wild-type NRAS and BRAF V600E mutant at 1-3 uM relative to control; type: functional, cell-based
SK-MEL-2 [3] = experiment: Inhibition of STK19 in nude mouse xenografted with human SK-MEL-2 cells assessed as decrease in NRAS phosphorylation at 50 mg/kg; type: functional, organism-based
[4] = target: T1, Inactive serine/threonine-protein kinase 19 (Homo sapiens) (UniProt P49842); experiment: Inhibition of wild-type STK19 in human primary melanocytes at 0.1-3 uM relative to control; type: cell-based
T1 sequence (whole entry): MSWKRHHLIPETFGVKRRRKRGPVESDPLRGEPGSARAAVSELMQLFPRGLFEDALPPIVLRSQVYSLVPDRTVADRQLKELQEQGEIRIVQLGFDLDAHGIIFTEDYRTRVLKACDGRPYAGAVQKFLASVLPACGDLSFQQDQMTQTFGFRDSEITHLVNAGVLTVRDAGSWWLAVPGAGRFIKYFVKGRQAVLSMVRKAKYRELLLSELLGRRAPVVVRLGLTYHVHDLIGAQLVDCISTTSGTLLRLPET

UACC-62 [5] = experiment: Growth inhibition of human UACC62 cells expressing wild-type NRAS and BRAF V600E mutant at 1-3 uM relative to control; type: functional, cell-based
[6] = target: T1, Inactive serine/threonine-protein kinase 19 (Homo sapiens); experiment: Inhibition of STK19 in human SK-MEL-2 cells expressing NRAS Q61R and wild-type BRAF at 1-3 uM assessed as NRAS signaling relative to control; type: cell-based
[7] = Toxicity in C57BL/6J mouse assessed as effect on creatinine level at 25 mg/kg, administered twice daily for 20 days; type: organism-based; details: in vivo, 480 h
[8] = Toxicity in C57BL/6J mouse assessed as heart histology at 25 mg/kg, administered twice daily for 20 days by H and E staining method; type: organism-based; details: in vivo, 480 h
[9] = tested on: T2, Inactive serine/threonine-protein kinase 19 (Homo sapiens), P49842 [D89N]; experiment: Inhibition of STK19 D89N mutant in human primary melanocytes at 0.1-3 uM relative to control; type: cell-based
T2 sequence (whole entry): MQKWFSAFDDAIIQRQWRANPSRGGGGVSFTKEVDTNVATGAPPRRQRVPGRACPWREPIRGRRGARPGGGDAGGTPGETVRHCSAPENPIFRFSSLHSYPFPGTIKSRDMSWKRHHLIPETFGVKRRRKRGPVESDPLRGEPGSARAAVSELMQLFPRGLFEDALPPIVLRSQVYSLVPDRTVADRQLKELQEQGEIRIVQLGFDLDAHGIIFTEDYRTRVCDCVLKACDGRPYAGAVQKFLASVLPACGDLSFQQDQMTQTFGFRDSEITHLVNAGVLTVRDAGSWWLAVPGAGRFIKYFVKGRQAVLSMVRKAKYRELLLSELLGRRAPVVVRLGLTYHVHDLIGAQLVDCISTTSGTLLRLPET

WM2032 = experiment: Growth inhibition of human WM2032 cells expressing NRAS Q61R and wild-type BRAF at 1-3 uM relative to control; type: functional, cell-based
[10] = Toxicity in C57BL/6J mouse assessed as lung histology at 25 mg/kg, administered twice daily for 20 days by H and E staining method; type: organism-based; details: in vivo, 480 h
[11] = target: T1, Inactive serine/threonine-protein kinase 19 (Homo sapiens); experiment: Inhibition of STK19 in human WM2032 cells expressing NRAS Q61R and wild-type BRAF at 100 nM assessed as NRAS phosphorylation relative to control; type: cell-based
[12] = Toxicity in C57BL/6J mouse assessed as effect on animal body weight at 25 mg/kg, administered twice daily for 20 days; type: organism-based; details: in vivo, 480 h
[13] = Toxicity in C57BL/6J mouse assessed as effect on phosphorous level at 25 mg/kg, administered twice daily for 20 days; type: organism-based; details: in vivo, 480 h
[14] = target: T1, Inactive serine/threonine-protein kinase 19 (Homo sapiens); experiment: Inhibition of STK19 in human SK-MEL-2 cells expressing NRAS Q61R and wild-type BRAF at 1-3 uM assessed as PI3K signaling relative to control; type: cell-based
[15] = Toxicity in C57BL/6J mouse assessed as kidney histology at 25 mg/kg, administered twice daily for 20 days by H and E staining method; type: organism-based; details: in vivo, 480 h
[16] = target: T1, Inactive serine/threonine-protein kinase 19 (Homo sapiens); experiment: Inhibition of STK19 in STK19-depleted human primary melanocytes expressing wild-type STK19 at 1-3 uM assessed as NRAS phosphorylation relative to control; type: tissue-based; details: Melanocyte
[17] = target: T1, Inactive serine/threonine-protein kinase 19 (Homo sapiens); experiment: Inhibition of STK19 in human A375 cells expressing wild-type NRAS and BRAF V600E mutant at 1-3 uM assessed as PI3K signaling relative to control; type: cell-based; details: A-375
[18] = Toxicity in C57BL/6J mouse assessed as effect on alanine aminotransferase level at 25 mg/kg, administered twice daily for 20 days; type: organism-based; details: in vivo, 480 h
[19] = target: T1, Inactive serine/threonine-protein kinase 19 (Homo sapiens); experiment: Inhibition of STK19 in human A375 cells expressing wild-type NRAS and BRAF V600E mutant at 1-3 uM assessed as MEK-ERK signaling relative to control; type: cell-based; details: A-375
[20] = Toxicity in C57BL/6J mouse assessed as effect on aspartate aminotransferase level at 25 mg/kg, administered twice daily for 20 days; type: organism-based; details: in vivo, 480 h
[21] = Toxicity in nude mouse xenografted with human SK-MEL-2 cells assessed as increase in animal survival at 50 mg/kg; type: organism-based; details: in vivo
hTERT [22] = experiment: Antitumor activity against hTERT/p53DD/CDK4 (R24C) immortal melanocytes expressing wild-type STK19 xenografted in nude mouse assessed as reduction in tumor formation; type: functional; details: Homo sapiens
hTERT [23] = experiment: Antiproliferative activity against hTERT/p53DD/CDK4 (R24C) immortal melanocytes expressing STK19 D89N mutant at 3 uM relative to control; type: functional, tissue-based; details: Homo sapiens
UACC-62 [24] = experiment: Induction of apoptosis in human UACC62 cells expressing wild-type NRAS and BRAF V600E mutant at 1-3 uM relative to control; type: functional, cell-based
[25] = target: T1, Inactive serine/threonine-protein kinase 19 (Homo sapiens); experiment: Inhibition of STK19 in human WM2032 cells expressing NRAS Q61R and wild-type BRAF at 300 nM assessed as H3K9 methylation relative to control; type: cell-based
[26] = target: T1, Inactive serine/threonine-protein kinase 19 (Homo sapiens); experiment: Inhibition of STK19 in human WM2032 cells expressing NRAS Q61R and wild-type BRAF at 1-3 uM assessed as PI3K signaling relative to control; type: cell-based
[27] = Toxicity in nude mouse xenografted with human SK-MEL-2 cells assessed as increase in animal survival at 25 mg/kg; type: organism-based; details: in vivo
SK-MEL-2 [28] = experiment: Antitumor activity against human SK-MEL-2 cells xenografted in nude mouse assessed as induction of apoptosis at 25 mg/kg, administered for 21 days; type: functional, organism-based
SK-MEL-2 [29] = experiment: Antitumor activity against human SK-MEL-2 cells xenografted in nude mouse assessed as inhibition of cancer cell proliferation at 50 mg/kg, administered for 21 days; type: functional, organism-based
[30] = target: T1, Inactive serine/threonine-protein kinase 19 (Homo sapiens); experiment: Inhibition of STK19 in human SK-MEL-2 cells expressing NRAS Q61R and wild-type BRAF at 300 nM assessed as NRAS phosphorylation relative to control; type: cell-based

Q: Which Activity (SK-MEL-2 [1]) does the source give for `COc1cc2nc(NC3CC3)nc(NC3CCN(C(C)C)CC3)c2cc1OC.O=C(O)C(F)(F)F` here?
A: Active

Q: What about the Activity (hTERT [2]) of the same compound?
A: Active

Q: And the Activity (A-375)?
A: inactive

Q: And the inhibition (SK-MEL-2 [3])?
A: Active

Q: And the inhibition [4]?
A: Active

Q: What about the Activity (UACC-62 [5]) of the same compound?
A: inactive

Q: What about the inhibition [6] of the same compound?
A: Active

Q: What about the Activity [7] of the same compound?
A: Non-Toxic

Q: What about the Activity [8] of the same compound?
A: Non-Toxic

Q: And the inhibition [9]?
A: Active

Q: And the Activity (WM2032)?
A: Active

Q: What about the Activity [10] of the same compound?
A: Non-Toxic

Q: And the inhibition [11]?
A: Active

Q: What about the Activity [12] of the same compound?
A: Non-Toxic

Q: And the Activity [13]?
A: Non-Toxic

Q: What about the inhibition [14] of the same compound?
A: Active

Q: And the Activity [15]?
A: Non-Toxic

Q: And the inhibition [16]?
A: Active

Q: And the inhibition [17]?
A: inactive

Q: And the Activity [18]?
A: Non-Toxic

Q: What about the inhibition [19] of the same compound?
A: inactive

Q: And the Activity [20]?
A: Non-Toxic

Q: And the Activity [21]?
A: Non-Toxic

Q: What about the Activity (hTERT [22]) of the same compound?
A: Active

Q: And the Activity (hTERT [23])?
A: Active

Q: And the Activity (UACC-62 [24])?
A: inactive

Q: What about the inhibition [25] of the same compound?
A: inactive

Q: And the inhibition [26]?
A: Active

Q: What about the Activity [27] of the same compound?
A: Non-Toxic

Q: What about the Activity (SK-MEL-2 [28]) of the same compound?
A: Active

Q: What about the Activity (SK-MEL-2 [29]) of the same compound?
A: Active

Q: And the inhibition [30]?
A: Active
